Assay results published in ChEMBL document CHEMBL5154831 (J Med Chem, 2022).
≈ marks a conversion by molar mass, not a printed value.

Experiments:
[1] = AUC (0 to t) in C57BL/6 mouse at 2 mg/kg, sc by LC-MS analysis; type: ADME, organism-based; set-up: dose 2 mg/kg, route sc; details: in vivo
[2] = Equilibrium solubility of compound in water incubated for 24 hrs by UV-spectroscopy method; type: physicochemical
[3] = Elimination rate constant in C57BL/6 mouse at 2 mg/kg, sc by LC-MS analysis; type: ADME, organism-based; details: in vivo
[4] = Toxicity in wild type mouse assessed as effect on body weight; details: in vivo
[5] = Toxicity in wild type mouse assessed as effect on kidney size; details: in vivo
Vasopressin V2 receptor = Vasopressin V2 receptor (Homo sapiens, UniProt P30518); test: Displacement of conivaptan-red from SNAP-tagged V2 receptor (unknown origin) expressed in HEK293 cells assessed as inhibition constant measured after 2 hrs by HTRF assay; type: cell-based
Sequence of Vasopressin V2 receptor (P30518 whole entry): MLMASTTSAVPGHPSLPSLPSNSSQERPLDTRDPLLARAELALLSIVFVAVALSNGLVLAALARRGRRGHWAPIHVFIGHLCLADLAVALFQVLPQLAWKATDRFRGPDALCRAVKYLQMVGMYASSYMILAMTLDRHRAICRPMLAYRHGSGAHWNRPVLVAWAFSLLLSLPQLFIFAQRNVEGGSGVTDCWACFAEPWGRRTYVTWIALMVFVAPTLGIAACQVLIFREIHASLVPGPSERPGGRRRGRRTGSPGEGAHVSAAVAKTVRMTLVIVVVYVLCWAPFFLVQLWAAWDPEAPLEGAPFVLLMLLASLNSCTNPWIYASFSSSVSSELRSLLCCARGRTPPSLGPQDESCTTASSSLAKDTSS

[6] = Cmax in C57BL/6 mouse at 2 mg/kg, sc by LC-MS analysis; type: ADME, organism-based; set-up: dose 2 mg/kg, route sc; details: in vivo
[7] = Tmax in C57BL/6 mouse at 2 mg/kg, sc by LC-MS analysis; type: ADME, organism-based; details: in vivo
[8] = Half life in C57BL/6 mouse at 2 mg/kg, sc by LC-MS analysis; type: ADME, organism-based; details: in vivo
[9] = Toxicity in wild type mouse assessed as effect on body weight at 2 mg/kg; type: organism-based; details: in vivo
[10] = target: Vasopressin V2 receptor (Rattus norvegicus) (UniProt Q00788); test: Ex vivo receptor occupancy at V2R in isolated perfused Sprague-Dawley rat kidney assessed as dissociation half life at 0.1 uM incubated for 30 mins by LC-MS analysis; type: functional, tissue-based
Sequence of Vasopressin V2 receptor (Rattus norvegicus) (Q00788 whole entry, the tested form may be a part): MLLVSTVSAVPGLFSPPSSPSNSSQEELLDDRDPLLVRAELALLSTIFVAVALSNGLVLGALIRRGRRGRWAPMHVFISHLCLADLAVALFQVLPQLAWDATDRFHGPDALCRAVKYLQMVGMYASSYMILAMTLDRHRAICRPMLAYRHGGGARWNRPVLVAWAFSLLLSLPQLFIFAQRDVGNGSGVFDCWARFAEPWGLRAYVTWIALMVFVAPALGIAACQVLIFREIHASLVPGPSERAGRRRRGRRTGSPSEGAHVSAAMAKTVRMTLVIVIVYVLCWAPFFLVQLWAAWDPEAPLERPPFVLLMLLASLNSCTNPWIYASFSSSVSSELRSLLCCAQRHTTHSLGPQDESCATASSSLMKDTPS

Row | AUC(0-t) [1] | solubility thermodynamic at 24 h [2] | k el [3] | Ki (Vasopressin V2 receptor) | Cmax [6] | Tmax [7] | half-life [8] | T1/2 [10] | Structure (SMILES) | Activity [4] | Activity [5] | Activity [9]
1 | 527 ng·h/mL | 2.3 µg/mL (≈ 4.1 µM) | 8.33e-05 s⁻¹ | 31 nM | 426 ng/mL | 11.4 min | 174 min | – | CCN(CC)CCCNC1CCCN(C(=O)c2ccc(NC(=O)c3ccccc3C)cc2C)c2ccc(Cl)cc21 (stereo not drawn) | Non-Toxic | Non-Toxic | –
2 | 450 ng·h/mL | 2.3 µg/mL (≈ 3.81 µM) | 2.58e-05 s⁻¹ | – | 157 ng/mL | 8.4 min | 450 min | – | Cc1ccccc1C(=O)Nc1ccc(C(=O)N2CCCC(NCCCCCN3CCOCC3)c3cc(Cl)ccc32)c(C)c1 (stereo not drawn) | Non-Toxic | Non-Toxic | –
3 | 450 ng·h/mL | 2.3 µg/mL (≈ 3.9 µM) | 0.000667 s⁻¹ | – | 783 ng/mL | 8.4 min | 17.4 min | – | Cc1ccccc1C(=O)Nc1ccc(C(=O)N2CCCC(NCCC(=O)N3CCOCC3)c3cc(Cl)ccc32)c(C)c1 (stereo not drawn) | Non-Toxic | Non-Toxic | –
4 | 514 ng·h/mL | 2.3 µg/mL (≈ 3.9 µM) | 3.89e-05 s⁻¹ | – | 365 ng/mL | 4.98 min | 324 min | – | Cc1ccccc1C(=O)Nc1ccc(C(=O)N2CCCC(NCCCCN3CCOCC3)c3cc(Cl)ccc32)c(C)c1 (stereo not drawn) | Non-Toxic | Non-Toxic | –
5 | 1110 ng·h/mL | 2.3 µg/mL (≈ 4.01 µM) | 5e-05 s⁻¹ | – | 419 ng/mL | 19.8 min | 234 min | – | Cc1ccccc1C(=O)Nc1ccc(C(=O)N2CCCC(NCCCN3CCCCC3)c3cc(Cl)ccc32)c(C)c1 (stereo not drawn) | Non-Toxic | Non-Toxic | –
6 | 817 ng·h/mL | 2.3 µg/mL (≈ 4 µM) | 4.72e-05 s⁻¹ | – | 453 ng/mL | 15 min | 258 min | – | Cc1ccccc1C(=O)Nc1ccc(C(=O)N2CCCC(NCCCN3CCOCC3)c3cc(Cl)ccc32)c(C)c1 (stereo not drawn) | Non-Toxic | Non-Toxic | Non-Toxic
7 | 565 ng·h/mL | 2.3 µg/mL (≈ 4.06 µM) | 0.000361 s⁻¹ | – | 360 ng/mL | 16.7 min | 32 min | – | Cc1ccccc1C(=O)Nc1ccc(C(=O)N2CCCC(NCCCc3ccncc3)c3cc(Cl)ccc32)c(C)c1 (stereo not drawn) | Non-Toxic | Non-Toxic | –
8 | 544 ng·h/mL | 2.3 µg/mL (≈ 4.1 µM) | 0.000417 s⁻¹ | – | 679 ng/mL | 4.98 min | 28.2 min | – | Cc1ccccc1C(=O)Nc1ccc(C(=O)N2CCCC(NCCN3CCOCC3)c3cc(Cl)ccc32)c(C)c1 (stereo not drawn) | Non-Toxic | Non-Toxic | –
9 | 824 ng·h/mL | 2.3 µg/mL (≈ 5.12 µM) | 4.72e-05 s⁻¹ | – | 394 ng/mL | 49.8 min | 246 min | 23 min | Cc1ccccc1C(=O)Nc1ccc(C(=O)N2CCCC(O)c3cc(Cl)ccc32)c(C)c1 (stereo not drawn) [TOLVAPTAN] | Non-Toxic | Non-Toxic | –
10 | 588 ng·h/mL | 2.3 µg/mL (≈ 3.91 µM) | 2.75e-05 s⁻¹ | – | 518 ng/mL | 4.98 min | 420 min | – | Cc1ccccc1C(=O)Nc1ccc(C(=O)N2CCCC(NCCCN3CCN(C)CC3)c3cc(Cl)ccc32)c(C)c1 (stereo not drawn) | Non-Toxic | Non-Toxic | –
